According to patent US7892789B2, “Method of increasing cell permeability to trehalose by recombinantly producing a trehalose transporter” (priority 2007, dated 2011):

How the values were obtained:
DmTRET1 = target: T1, DmTRET1 (Drosophila melanogaster, UniProt A1Z8N1); test: Trehalose uptake in Xenopus oocytes expressing DmTRET1; assay type: cell-based; conditions: 105 mM of trehalose, 3 h
T1 construct: ORF of either Tret1, DmTret1, AmTret1, AgTret1 or BmTret1 cDNA was amplified with PCR; expressed in transfected cells; host or cells: Xenopus laevis oocytes injected with cRNA
T1 sequence (A1Z8N1 352-857): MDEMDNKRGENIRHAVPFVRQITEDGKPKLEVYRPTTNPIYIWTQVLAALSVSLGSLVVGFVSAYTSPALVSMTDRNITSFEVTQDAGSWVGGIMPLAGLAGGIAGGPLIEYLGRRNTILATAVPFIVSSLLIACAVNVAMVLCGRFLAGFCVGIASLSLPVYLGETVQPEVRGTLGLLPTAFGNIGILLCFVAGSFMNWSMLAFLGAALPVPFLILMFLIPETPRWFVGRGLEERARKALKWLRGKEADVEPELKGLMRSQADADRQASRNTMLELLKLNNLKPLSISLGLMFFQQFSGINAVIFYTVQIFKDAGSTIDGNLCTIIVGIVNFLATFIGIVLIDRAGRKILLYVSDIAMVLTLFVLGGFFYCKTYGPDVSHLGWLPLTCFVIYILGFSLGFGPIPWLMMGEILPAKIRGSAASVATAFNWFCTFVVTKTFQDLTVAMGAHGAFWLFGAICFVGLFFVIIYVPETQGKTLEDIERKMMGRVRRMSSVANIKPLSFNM
From the text: (§1) The capped RNA (cRNA) expression vector pTRET1-XbG-ev1 series was constructed as follows: ORF of either Tret1, DmTret1, AmTret1, AgTret1 or BmTret1 cDNA was amplified with PCR using specific primers containing Bgl II site at the 5′-end on each primer, respectively. The PCR products were digested with the restriction enzymes, and cloned into the site of Bgl II in pXbG-ev1 (Preston, G. M., et al. (1992) Science 256, 385-387). ORF of hGLUT1 cDNA was obtained by digestion of pSPMM1 with BamH I, and then subcloned into the site of Bgl II in pXbG-2. Template DNAs for cRNA synthesis were amplified from the corresponding cRNA expression vectors with a high fidelity DNA polymerase, KOD—Plus—, (TOYOBO). The cRNAs were synthesized with mMESSAGE mMACHINE T7 Kit (Ambion), and then purified with RNeasy MiniElute Cleanup kit (Qiagen).
(§2) All uptake assays for zero-trans trehalose and/or other sugars were performed using Xenopus oocytes expressing TRET1 at 15° C. in MBS containing appropriate concentrations of sugars. Sugar concentrations were determined using HPLC (Watanabe, M., et al. (2002) J Exp Biol 205, 2799-2802). All assays were carried out in triplicate. […] (data not shown).
(§3) Likewise, whether these Tret1-orthologs have trehalose transport activity was examined using the Xenopus oocyte expression system incubated in 105 mM of trehalose for 3 h.

AgTRET1 = target: T2, AgTRET1 (Anopheles gambiae, UniProt Q7PIR5); test: Trehalose uptake in Xenopus oocytes expressing AgTRET1; assay type: cell-based; conditions: 105 mM of trehalose, 3 h
T2 construct: ORF of either Tret1, DmTret1, AmTret1, AgTret1 or BmTret1 cDNA was amplified with PCR; expressed in transfected cells; host or cells: Xenopus laevis oocytes injected with cRNA
T2 sequence (Q7PIR5 290-793): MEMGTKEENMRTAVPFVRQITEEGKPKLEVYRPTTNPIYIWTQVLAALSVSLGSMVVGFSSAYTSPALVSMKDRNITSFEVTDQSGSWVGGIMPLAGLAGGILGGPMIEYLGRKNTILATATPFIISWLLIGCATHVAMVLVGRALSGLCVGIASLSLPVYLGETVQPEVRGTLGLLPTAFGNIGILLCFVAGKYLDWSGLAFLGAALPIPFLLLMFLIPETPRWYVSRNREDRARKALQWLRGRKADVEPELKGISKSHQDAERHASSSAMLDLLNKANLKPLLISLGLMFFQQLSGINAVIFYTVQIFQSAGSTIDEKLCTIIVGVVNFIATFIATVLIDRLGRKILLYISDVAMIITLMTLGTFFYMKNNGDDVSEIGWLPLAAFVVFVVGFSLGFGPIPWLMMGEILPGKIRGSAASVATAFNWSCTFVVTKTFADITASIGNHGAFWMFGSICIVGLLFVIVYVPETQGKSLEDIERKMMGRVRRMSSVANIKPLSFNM
From the text: as §1, §2, §3

[1] = Degradation of trehalose in extracts of mammalian cells; assay type: in vitro ADME; conditions: extracts of CHO-K1, HuH-7, NIH3T3 cells, 3 h at 37° C., data not shown
BmTRET1 = target: T3, BmTRET1 (Bombyx mori, UniProt A9ZSY3); test: Trehalose uptake in Xenopus oocytes expressing BmTRET1; assay type: cell-based; conditions: 105 mM of trehalose, 3 h
T3 construct: ORF of either Tret1, DmTret1, AmTret1, AgTret1 or BmTret1 cDNA was amplified with PCR; expressed in transfected cells; host or cells: Xenopus laevis oocytes injected with cRNA
T3 sequence (A9ZSY3 1-505): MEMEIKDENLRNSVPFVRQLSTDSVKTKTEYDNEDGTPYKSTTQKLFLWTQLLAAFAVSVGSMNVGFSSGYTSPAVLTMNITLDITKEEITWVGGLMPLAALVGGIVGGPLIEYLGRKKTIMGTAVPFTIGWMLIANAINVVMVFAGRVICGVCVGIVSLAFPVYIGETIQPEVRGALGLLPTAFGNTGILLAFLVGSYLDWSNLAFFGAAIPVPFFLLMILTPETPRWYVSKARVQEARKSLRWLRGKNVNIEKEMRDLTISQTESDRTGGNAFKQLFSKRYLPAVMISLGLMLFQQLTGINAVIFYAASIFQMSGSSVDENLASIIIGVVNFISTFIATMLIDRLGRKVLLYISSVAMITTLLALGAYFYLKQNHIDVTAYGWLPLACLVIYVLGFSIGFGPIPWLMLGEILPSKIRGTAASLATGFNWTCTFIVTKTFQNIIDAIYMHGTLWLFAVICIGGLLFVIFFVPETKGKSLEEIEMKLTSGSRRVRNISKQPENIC
From the text: as §1, §2, §3

AmTRET1 = target: T4, AmTRET1 (Apis mellifera ligustica, UniProt A9ZSY2); test: Trehalose uptake in Xenopus oocytes expressing AmTRET1; assay type: cell-based; conditions: 105 mM of trehalose, 3 h
T4 construct: ORF of either Tret1, DmTret1, AmTret1, AgTret1 or BmTret1 cDNA was amplified with PCR; expressed in transfected cells; host or cells: Xenopus laevis oocytes injected with cRNA
T4 sequence (A9ZSY2 1-502): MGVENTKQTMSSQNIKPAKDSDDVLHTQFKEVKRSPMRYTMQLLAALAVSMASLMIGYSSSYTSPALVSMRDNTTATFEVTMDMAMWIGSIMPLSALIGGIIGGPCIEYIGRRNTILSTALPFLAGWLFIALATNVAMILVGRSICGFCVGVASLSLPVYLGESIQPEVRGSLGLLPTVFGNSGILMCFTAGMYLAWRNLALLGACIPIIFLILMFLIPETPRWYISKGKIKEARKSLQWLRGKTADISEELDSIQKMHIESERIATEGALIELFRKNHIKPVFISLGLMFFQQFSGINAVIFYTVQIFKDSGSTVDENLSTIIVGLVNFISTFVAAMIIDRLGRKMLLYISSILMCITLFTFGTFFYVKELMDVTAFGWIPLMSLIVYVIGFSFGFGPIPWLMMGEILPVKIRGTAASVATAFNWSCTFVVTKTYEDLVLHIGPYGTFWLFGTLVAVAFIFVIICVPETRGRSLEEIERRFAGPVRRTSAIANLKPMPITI
From the text: as §1, §2, §3

For OC[C@H]1O[C@H](O[C@H]2O[C@H](CO)[C@@H](O)[C@H](O)[C@H]2O)[C@H](O)[C@@H](O)[C@@H]1O [trehalose], the trehalose transport activity (DmTRET1) was “showed trehalose transport activity”, the trehalose transport activity (AgTRET1) was “showed trehalose transport activity” and the degradation of trehalose [1] was “No degradation”. The trehalose transport activity (BmTRET1) was “showed trehalose transport activity” and the trehalose transport activity (AmTRET1) was “showed trehalose transport activity”.
